Measured values reported in patent publication US10973832B2, “Muscarinic M1 receptor agonists” (Heptares Therapeutics Limited, priority 2011, dated 2021).

Key:
[1] = test system: scopolamine-induced amnesia; experiment: Passive avoidance; format: in vivo; conditions: for reversal of scopolamine-induced amnesia: dose range 3, 10, 30 mg/kg po, scopolamine 1 mg/kg i.p.; for significance of reversal of scopolamine-induced amnesia: p<0.05 Bonferroni post hoc test
Description: (§1) FIGS. 1-4 show the efficacy of the compounds of the invention. FIGS. 1-3 relate to the passive avoidance assay described in part B. Studies were carried out as described previously by Foley et al., (2004) Neuropsychopharmacology. In the passive avoidance task scopolamine administration (1 mg/kg, i.p.) at 6 hours following training rendered animals amnesic of the paradigm. A dose range of 3, 10, and 30 mg/kg (po) free base, administered 90 minutes prior to the training period via oral gavage, was examined.
as §1, with “Studies” for “FIGS. 1-4 show the efficacy of the compounds of the invention. FIGS. 1-3 relate to the passive avoidance assay described in part B. Studies”

[2] = biological target: T1, human muscarinic M4 receptor (Homo sapiens, UniProt P08173); experiment: Phospho-ERK1/2 assay, muscarinic M4; format: cell-based; conditions: for Emax: CHO, read-out: % Emax cf. ACh (M4)
T1 construct: expressed in transfected cells
T1 sequence (P08173 1-479): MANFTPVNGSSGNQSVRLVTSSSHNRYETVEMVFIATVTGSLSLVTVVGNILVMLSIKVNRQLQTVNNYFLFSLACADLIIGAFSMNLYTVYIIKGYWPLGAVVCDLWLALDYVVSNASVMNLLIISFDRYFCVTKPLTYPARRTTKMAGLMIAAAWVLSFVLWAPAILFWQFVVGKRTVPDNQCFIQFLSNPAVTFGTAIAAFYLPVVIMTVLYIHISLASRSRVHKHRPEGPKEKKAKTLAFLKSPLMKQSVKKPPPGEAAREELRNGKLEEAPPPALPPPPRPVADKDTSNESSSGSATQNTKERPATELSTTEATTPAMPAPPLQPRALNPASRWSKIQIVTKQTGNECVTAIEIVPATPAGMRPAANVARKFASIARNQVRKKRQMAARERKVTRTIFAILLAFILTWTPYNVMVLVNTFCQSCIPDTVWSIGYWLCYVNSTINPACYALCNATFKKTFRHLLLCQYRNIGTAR
Procedure, shortened: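 Agonist-induced phospho-ERK1/2 is measured in serum-starved CHO cells carrying the human receptor, with a 5 min stimulation at 37 °C. AlphaScreen SureFire quantifies the signal, from which pEC50 and Emax are obtained.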

Male Wistar rats = experiment: Novel object recognition; format: in vivo; conditions: 10 and 30 mg/kg oral gavage 90 minutes prior to training; p<0.05
Description: The novel object recognition paradigm is based on the greater spontaneous exploration of a novel object, compared with a familiar object, shown by rodents (Ennaceur and Delacour, 1988). […] Male Wistar rats were assessed for cognitive ability in a test apparatus comprising an open-field arena placed in a sound-attenuated room under dimmed lighting. Images of the open-field were captured by digital camera, and viewed on a monitor in an adjoining room. Each rat was subjected to the procedure separately and care taken to remove any olfactory/taste cues by cleaning the arena and test objects with alcohol between trials and rats. All tests are video scored blind to treatment. Following a 10-minute habituation period, each rat was placed into the test arena in the presence of two identical objects (plastic shapes). Each rat was placed facing the same direction at the same position in the arena, and the time spent actively exploring the objects during a 5-minute training period (T1) was recorded. The rat is returned to its home cage between tests. After 24 hours, each rat was again placed in the test arena for 5 minutes (T2) in the presence of one of the familiar objects and a novel object, and the time spent exploring both objects again recorded. The presentation order and position of the objects (left/right) was randomized between rats to prevent bias from order or place preference. Doses of 3, 10 or 30 mg/kg of test compound were administered by oral gavage 90 minutes prior to training (n=8). Donepezil (0.1 mg/kg) and galanthamine (3 mg/kg) were administered via intraperitoneal injection 60 minutes prior to training. Vehicle-treated controls were employed for comparison.

SMILES	reversal of scopolamine-induced amnesia ([1]; 90 minutes prior to training)	ED50 ([1]; po, free base, 90 minutes prior to training, scopolamine 1 mg/kg i.p. 6 hours after training, read-out: approximate ED50, reversal of scopolamine-induced amnesia)	EC50 [2]	Emax [2]	novel object recognition memory vs vehicle-treated controls (Male Wistar rats)	effect compared with donepezil (0.1 mg/kg, i.p.) positive control ([1]; 10 mg/kg, FIG. 3)	effect compared with donepezil (0.1 mg/kg, i.p.) positive control ([1]; 10 and 30 mg/kg, FIG. 2)	significance of reversal of scopolamine-induced amnesia ([1]; acute 10 mg/kg po, FIG. 3)	significance of reversal of scopolamine-induced amnesia ([1]; acute 10 and 30 mg/kg, FIG. 2)
CCOC(=O)N1CCCC(N2CCC(C(=O)NC3(C)CCC3)CC2)CC1 (stereo not drawn) [Example 27, ethyl 4-(4-((1-methylcyclobutyl)carbamoyl)piperidin-1-yl)azepane-1-carboxylate]	reverse scopolamine-induced amnesia of the paradigm in a dose-dependent manner	~10 mg/kg	427 nM	88%	–	–	–	–	–
CCOC(=O)N1CCC[C@H](N2CCC(C(=O)NC3(C)CCC3)CC2)CC1 [Example 65, ethyl (4S)-4-{4-[(1-methylcyclobutyl)carbamoyl]piperidin-1-yl)azepane-1-carbondate]	reverse scopolamine-induced amnesia of the paradigm in a dose-dependent manner	–	224 nM	97%	significantly improved novel object recognition memory	not significantly different to that produced by the cholinesterase inhibitor donepezil	not significantly different to that produced by the cholinesterase inhibitor donepezil	significant effects	significant effects
